Test results from ChEMBL document CHEMBL4052799, “Discovery of orally bioavailable cyclohexanol-based NR2B-selective NMDA receptor antagonists with analgesic activity utilizing a scaffold hopping approach” (Bioorg Med Chem Lett, 2017).
pIC50: −log10 of the molar value.

Key:
[1] = target: Glutamate receptor ionotropic, NMDA 2B (Rattus norvegicus, UniProt Q00960); experiment: Displacement of [3H]-ifenprodil from NR2B in Wistar rat brain membrane after 120 mins by liquid scintillation counting analysis; format: cell membranes
[2] = target: Glutamate receptor ionotropic, NMDA 2B (Mus musculus, UniProt P35438+Q01097); experiment: Antagonist activity at mouse NR2B expressed in Hek293 cells co-expressing mouse NR1 assessed as inhibition of glutamic acid/glycine-induced intracellular Ca2+ levels measured after 1 day post induction by Fluo-3/AM dye-based fluorescence assay; format: cell-based
hERG (KCNH2) = hERG (KCNH2) (Homo sapiens, UniProt Q12809); experiment: Inhibition of human ERG expressed in HEK293 cells at 1 uM after 10 mins by whole cell patch clamp method relative to control; format: cell-based; settings: HEK293 cells that express hERG
[3] = Total clearance in Sprague-Dawley rat at 0.5 mg/kg, iv or 1 mg/kg, po administered through cassette dosing; format: ADME, organism-based; settings: in vivo
[4] = Oral bioavailability in Sprague-Dawley rat at 1 mg/kg administered through cassette dosing; format: ADME, organism-based; settings: in vivo
[5] = Ratio of drug level in brain to plasma in Sprague-Dawley rat at 0.5 mg/kg, iv administered through cassette dosing measured after 0.5 hrs; format: ADME, organism-based; settings: brain and plasma
Mus musculus [6] = experiment: Analgesic activity in po dosed formalin-induced chronic pain ICR mouse model assessed as reduction in rate of licking time in early phase at 50 mg/kg administered 30 min prior to formalin challenge measured during first 5 mins post formalin challenge relative to control; format: functional
Mus musculus [7] = experiment: Analgesic activity in po dosed formalin-induced chronic pain ICR mouse model assessed as reduction in rate of licking time in late phase at 50 mg/kg administered 30 min prior to formalin challenge measured during 10 to 30 mins post formalin challenge relative to control; format: functional
Mus musculus [8] = experiment: Analgesic activity in po dosed formalin-induced chronic pain ICR mouse model assessed as reduction in rate of licking time in early phase at 30 mg/kg administered 30 min prior to formalin challenge measured during first 5 mins post formalin challenge relative to control; format: functional
Mus musculus [9] = experiment: Analgesic activity in po dosed formalin-induced chronic pain ICR mouse model assessed as reduction in rate of licking time in late phase at 30 mg/kg administered 30 min prior to formalin challenge measured during 10 to 30 mins post formalin challenge relative to control; format: functional

Sequence of Glutamate receptor ionotropic, NMDA 2B (Rattus norvegicus, UniProt Q00960) (Q00960 whole entry): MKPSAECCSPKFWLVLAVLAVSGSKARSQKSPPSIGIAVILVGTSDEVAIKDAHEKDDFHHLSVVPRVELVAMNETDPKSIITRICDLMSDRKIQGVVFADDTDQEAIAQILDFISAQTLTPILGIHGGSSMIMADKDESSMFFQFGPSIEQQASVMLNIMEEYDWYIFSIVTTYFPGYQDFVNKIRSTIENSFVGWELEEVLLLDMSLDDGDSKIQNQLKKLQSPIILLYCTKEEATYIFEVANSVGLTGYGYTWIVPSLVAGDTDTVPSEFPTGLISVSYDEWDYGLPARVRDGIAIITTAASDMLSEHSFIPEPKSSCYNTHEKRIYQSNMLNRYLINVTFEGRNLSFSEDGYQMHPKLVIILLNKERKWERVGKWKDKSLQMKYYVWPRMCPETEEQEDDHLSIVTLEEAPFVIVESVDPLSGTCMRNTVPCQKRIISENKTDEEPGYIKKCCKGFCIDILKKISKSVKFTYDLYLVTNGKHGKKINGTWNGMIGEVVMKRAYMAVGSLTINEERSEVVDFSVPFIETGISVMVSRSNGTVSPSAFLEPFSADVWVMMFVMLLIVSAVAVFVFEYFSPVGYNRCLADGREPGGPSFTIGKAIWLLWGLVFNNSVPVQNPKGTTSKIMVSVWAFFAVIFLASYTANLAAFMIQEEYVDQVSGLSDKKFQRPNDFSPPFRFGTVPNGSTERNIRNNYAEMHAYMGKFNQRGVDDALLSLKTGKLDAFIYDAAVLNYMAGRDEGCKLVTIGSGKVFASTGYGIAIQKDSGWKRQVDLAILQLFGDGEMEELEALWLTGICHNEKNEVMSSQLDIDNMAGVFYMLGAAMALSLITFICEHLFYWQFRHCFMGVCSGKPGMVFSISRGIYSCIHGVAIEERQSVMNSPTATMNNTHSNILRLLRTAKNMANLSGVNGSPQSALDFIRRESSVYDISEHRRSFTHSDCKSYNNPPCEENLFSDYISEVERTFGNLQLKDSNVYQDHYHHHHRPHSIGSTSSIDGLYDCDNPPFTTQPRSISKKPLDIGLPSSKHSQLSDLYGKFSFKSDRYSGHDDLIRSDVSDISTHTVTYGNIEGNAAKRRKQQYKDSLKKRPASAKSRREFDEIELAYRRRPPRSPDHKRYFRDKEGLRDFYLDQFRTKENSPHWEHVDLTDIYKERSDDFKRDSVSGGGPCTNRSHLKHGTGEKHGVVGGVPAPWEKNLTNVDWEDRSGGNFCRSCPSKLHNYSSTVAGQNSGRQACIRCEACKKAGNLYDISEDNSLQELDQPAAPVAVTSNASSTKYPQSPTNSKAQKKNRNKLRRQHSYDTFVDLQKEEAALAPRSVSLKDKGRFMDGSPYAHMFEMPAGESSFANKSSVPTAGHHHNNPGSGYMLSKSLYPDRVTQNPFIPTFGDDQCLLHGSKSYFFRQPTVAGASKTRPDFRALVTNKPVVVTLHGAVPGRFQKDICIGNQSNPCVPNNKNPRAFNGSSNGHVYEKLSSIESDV
Sequence of Glutamate receptor ionotropic, NMDA 2B (Mus musculus, UniProt P35438+Q01097) (Q01097 whole entry, one chain of several): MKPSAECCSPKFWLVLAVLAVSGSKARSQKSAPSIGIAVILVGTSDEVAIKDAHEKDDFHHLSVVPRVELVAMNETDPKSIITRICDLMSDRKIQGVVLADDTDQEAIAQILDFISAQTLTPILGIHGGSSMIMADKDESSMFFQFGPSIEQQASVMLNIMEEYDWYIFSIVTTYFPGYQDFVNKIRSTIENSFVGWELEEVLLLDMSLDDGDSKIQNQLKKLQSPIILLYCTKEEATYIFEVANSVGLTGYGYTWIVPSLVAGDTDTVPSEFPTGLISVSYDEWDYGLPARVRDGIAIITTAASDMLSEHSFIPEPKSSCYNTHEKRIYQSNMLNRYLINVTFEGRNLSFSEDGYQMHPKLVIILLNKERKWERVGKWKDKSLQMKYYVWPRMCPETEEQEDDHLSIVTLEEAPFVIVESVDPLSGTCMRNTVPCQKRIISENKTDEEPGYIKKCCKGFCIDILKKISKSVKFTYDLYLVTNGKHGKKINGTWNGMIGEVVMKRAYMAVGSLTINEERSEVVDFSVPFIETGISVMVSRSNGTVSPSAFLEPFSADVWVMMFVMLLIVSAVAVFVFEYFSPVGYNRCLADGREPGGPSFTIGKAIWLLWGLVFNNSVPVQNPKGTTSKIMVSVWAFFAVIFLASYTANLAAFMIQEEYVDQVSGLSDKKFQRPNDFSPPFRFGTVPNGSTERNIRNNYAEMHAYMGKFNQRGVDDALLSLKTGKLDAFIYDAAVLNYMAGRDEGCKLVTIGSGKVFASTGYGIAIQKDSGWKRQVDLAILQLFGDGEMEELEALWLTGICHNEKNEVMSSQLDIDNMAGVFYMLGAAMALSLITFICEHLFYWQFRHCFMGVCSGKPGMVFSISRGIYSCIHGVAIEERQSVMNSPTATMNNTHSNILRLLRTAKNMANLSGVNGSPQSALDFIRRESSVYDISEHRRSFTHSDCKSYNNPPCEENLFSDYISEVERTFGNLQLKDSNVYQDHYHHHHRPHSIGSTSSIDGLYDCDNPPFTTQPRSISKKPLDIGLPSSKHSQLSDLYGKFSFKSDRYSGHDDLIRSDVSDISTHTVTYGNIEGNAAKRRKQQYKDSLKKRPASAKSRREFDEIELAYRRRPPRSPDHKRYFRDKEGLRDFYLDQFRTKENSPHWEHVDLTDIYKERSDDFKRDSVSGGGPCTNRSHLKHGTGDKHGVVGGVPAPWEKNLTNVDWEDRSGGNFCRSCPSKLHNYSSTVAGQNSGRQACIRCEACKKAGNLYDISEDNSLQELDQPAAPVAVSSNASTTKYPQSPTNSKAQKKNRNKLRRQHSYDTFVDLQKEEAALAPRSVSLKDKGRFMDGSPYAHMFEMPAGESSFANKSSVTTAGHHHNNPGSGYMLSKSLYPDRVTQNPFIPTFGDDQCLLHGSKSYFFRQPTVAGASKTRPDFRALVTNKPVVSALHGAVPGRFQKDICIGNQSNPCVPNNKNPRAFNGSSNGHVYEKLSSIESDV
Sequence of hERG (KCNH2) (Q12809 whole entry): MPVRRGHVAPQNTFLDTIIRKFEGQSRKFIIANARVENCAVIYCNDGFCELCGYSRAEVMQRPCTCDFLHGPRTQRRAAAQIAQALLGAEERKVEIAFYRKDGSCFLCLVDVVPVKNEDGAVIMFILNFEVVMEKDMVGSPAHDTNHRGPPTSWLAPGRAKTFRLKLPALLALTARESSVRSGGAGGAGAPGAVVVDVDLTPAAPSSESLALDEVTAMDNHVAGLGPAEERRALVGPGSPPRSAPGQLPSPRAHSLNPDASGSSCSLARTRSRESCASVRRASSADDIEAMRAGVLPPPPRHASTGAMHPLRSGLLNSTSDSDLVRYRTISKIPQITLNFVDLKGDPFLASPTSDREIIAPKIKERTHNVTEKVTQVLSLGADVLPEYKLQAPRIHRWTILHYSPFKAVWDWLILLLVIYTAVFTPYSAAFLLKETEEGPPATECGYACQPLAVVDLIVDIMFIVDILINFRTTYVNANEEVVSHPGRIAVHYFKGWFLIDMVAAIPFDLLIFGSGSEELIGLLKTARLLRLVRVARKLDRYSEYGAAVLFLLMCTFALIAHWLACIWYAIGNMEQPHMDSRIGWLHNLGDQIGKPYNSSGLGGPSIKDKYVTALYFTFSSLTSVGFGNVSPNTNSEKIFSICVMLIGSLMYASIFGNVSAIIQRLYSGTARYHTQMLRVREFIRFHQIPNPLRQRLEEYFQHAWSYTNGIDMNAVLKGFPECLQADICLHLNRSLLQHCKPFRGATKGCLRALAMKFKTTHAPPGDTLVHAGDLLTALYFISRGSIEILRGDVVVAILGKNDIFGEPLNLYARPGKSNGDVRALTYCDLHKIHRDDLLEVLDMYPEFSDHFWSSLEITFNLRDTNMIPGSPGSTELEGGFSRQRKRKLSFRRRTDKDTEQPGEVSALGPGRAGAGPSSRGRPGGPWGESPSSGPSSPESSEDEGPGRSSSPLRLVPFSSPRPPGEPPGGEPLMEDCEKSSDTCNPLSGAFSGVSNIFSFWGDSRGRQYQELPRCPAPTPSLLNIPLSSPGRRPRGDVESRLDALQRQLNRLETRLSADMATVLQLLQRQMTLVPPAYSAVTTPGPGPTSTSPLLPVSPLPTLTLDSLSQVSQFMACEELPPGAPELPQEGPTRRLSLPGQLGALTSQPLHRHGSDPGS

SMILES	pIC50 [1]	pIC50 [2]	clearance [3] [mL/min/kg]	bioavailability [4] [%]	Kp at 0.5 h [5]	inhibition at 10 min, 1 µM (hERG (KCNH2)) [%]	inhibition in vivo at 50 mg/kg (Mus musculus [6]) [%]	inhibition in vivo at 50 mg/kg (Mus musculus [7]) [%]	inhibition in vivo at 30 mg/kg (Mus musculus [8]) [%]	inhibition in vivo at 30 mg/kg (Mus musculus [9]) [%]
O=C1CCc2cc(NC(=O)C[C@]3(O)CC[C@@H](Cc4ccccc4)CC3)ccc2N1	7.50	8.00	24.4	53.4	0.18	11.3	1.5	25.7	–	–
O[C@]1(Cc2cc(-c3cn[nH]c3)on2)CC[C@H](Cc2ccc(OC(F)(F)F)cc2)CC1	7.10	7.60	6.2	121	2.51	–	–	–	76.8	95.4
O[C@]1(Cc2cc(-c3cn[nH]c3)on2)CC[C@@H](Cc2ccc(Cl)cc2)CC1	6.20	6.70	–	–	–	–	–	–	–	–
O[C@]1(Cc2cc(-c3cn[nH]c3)on2)CC[C@H](Cc2ccc(C(F)(F)F)cc2)CC1	7.00	7.90	4	67.5	2.66	–	–	–	84.8	96.5
O=C(C[C@]1(O)CC[C@@H](Cc2ccccc2)CC1)Nc1ccc2[nH]c(=O)oc2c1	7.80	9.20	34.1	47.4	0.25	13.2	58.1	66.7	–	–
O[C@]1(Cc2cc(-c3cn[nH]c3)on2)CC[C@H](Cc2ccc(F)c(F)c2)CC1	7.10	7.40	15.2	67.5	1.99	15	–	–	–	–
O=c1[nH]c2ccc(-c3cc(C[C@]4(O)CC[C@@H](Cc5ccc(Cl)cc5)CC4)no3)cc2o1	6.70	7.40	–	–	–	–	–	–	–	–
O=c1[nH]c2ccc(-c3cc(C[C@]4(O)CC[C@@H](Cc5ccccc5)CC4)no3)cc2o1	7.00	7.80	12.1	8.4	0.92	–	–	–	–	–
O=C(C[C@]1(O)CC[C@@H](Cc2ccccc2)CC1)Nc1ccc2[nH]ncc2c1	7.20	7.40	21.5	23.7	0.9	18	59.5	74.4	–	–
O=c1ccc(-c2nc(C[C@]3(O)CC[C@@H](Cc4ccc(Cl)cc4)CC3)no2)c[nH]1	6.90	6.80	–	–	–	–	–	–	–	–
O=c1ccc(-c2cc(C[C@]3(O)CC[C@H](Cc4ccc(Cl)cc4)CC3)no2)c[nH]1	6.50	7.20	6.6	38.7	0.47	29.2	–	–	–	–

More lines, main results first:

pIC50 [1]	pIC50 [2]	clearance [3] [mL/min/kg]	bioavailability [4] [%]	Kp at 0.5 h [5]	SMILES	inhibition at 10 min, 1 µM (hERG (KCNH2)) [%]	inhibition in vivo at 50 mg/kg (Mus musculus [6]) [%]	inhibition in vivo at 50 mg/kg (Mus musculus [7]) [%]	inhibition in vivo at 30 mg/kg (Mus musculus [8]) [%]	inhibition in vivo at 30 mg/kg (Mus musculus [9]) [%]
7.90	7.90	30	78	1.62	O[C@]1(Cc2cc(-c3cn[nH]c3)on2)CC[C@H](Cc2ccc(F)cc2)CC1	22.5	–	–	–	–
7.60	8.70	35.7	12.1	0.14	O=C(C[C@]1(O)CC[C@@H](Cc2ccc(F)c(F)c2)CC1)Nc1ccc2[nH]c(=O)oc2c1	–	–	–	–	–
7.60	8.50	–	–	–	O=C(C[C@]1(O)CC[C@@H](Cc2ccc(Cl)cc2)CC1)Nc1ccc2[nH]c(=O)oc2c1	–	–	–	–	–
7.50	7.80	16.5	28.2	0.11	O=C1Cc2cc(NC(=O)C[C@]3(O)CC[C@@H](Cc4ccccc4)CC3)ccc2N1	12.1	–	–	–	–
7.40	8.20	11.7	72.8	1.31	O[C@]1(Cc2cc(-c3cn[nH]c3)on2)CC[C@H](Cc2ccc(Cl)cc2)CC1	32	–	–	–	–
7.60	9.20	36.8	42.4	0.12	O=C(C[C@]1(O)CC[C@@H](Cc2ccc(F)cc2)CC1)Nc1ccc2[nH]c(=O)oc2c1	26.1	–	–	–	–
7.60	9.00	16.8	37.2	0.08	O=c1ccc(-c2cc(C[C@]3(O)CC[C@@H](Cc4ccc(Cl)cc4)CC3)no2)c[nH]1	23	–	–	–	–
7.20	9.00	45.9	16	0.11	COc1ccc(C[C@H]2CC[C@](O)(CC(=O)Nc3ccc4[nH]c(=O)oc4c3)CC2)cc1	–	–	–	–	–
7.40	7.80	56.5	46.3	1.44	O[C@]1(Cc2cc(-c3cn[nH]c3)on2)CC[C@H](Cc2ccccc2)CC1	14	–	–	–	–
7.50	7.80	35.1	33	0.9	O=C(C[C@]1(O)CC[C@H](Cc2ccccc2)CC1)Nc1ccc2[nH]c(=O)oc2c1	7.7	–	–	–	–
7.50	8.50	37.1	30	1	O=C(Nc1ccc2[nH]c(=O)oc2c1)C(=O)N1CCC(Cc2ccc(F)cc2)CC1 [RADIPRODIL]	–	–	–	–	–
7.40	7.80	42.3	58	0.23	O=C(C[C@]1(O)CC[C@H](Cc2ccc(F)cc2)CC1)Nc1ccc2[nH]c(=O)oc2c1	12.2	–	–	–	–
7.60	8.20	–	–	–	O=C(C[C@]1(O)CC[C@@H](Cc2ccc(C(F)(F)F)cc2)CC1)Nc1ccc2[nH]c(=O)oc2c1	–	–	–	–	–
7.60	8.00	37.6	53.1	0.34	O=c1ccc(-c2cc(C[C@]3(O)CC[C@@H](Cc4ccccc4)CC3)no2)c[nH]1	4.4	–	–	–	–
7.40	7.60	61.8	23.7	1.64	COc1ccc(C[C@H]2CC[C@](O)(Cc3cc(-c4cn[nH]c4)on3)CC2)cc1	–	–	–	–	–
7.30	8.50	21	53.4	0.15	O=C(C[C@]1(O)CC[C@@H](Cc2ccc(OC(F)(F)F)cc2)CC1)Nc1ccc2[nH]c(=O)oc2c1	–	–	–	–	–
